The values that follow come from US20090012087A1, “New Aza-Bicyclohexane Compounds Useful As Inhibitors Of Thrombin” (ASTRAZENECA AB, priority 2007, published 2009).

Structures can show the parent of a compound that is named as a salt.

The assay deals with T1, Human α-thrombin (Homo sapiens, UniProt P00734).
T1 construct: Human α-thrombin; purchased Sigma Chemical Co. or Hematologic Technologies
Nature of the assay: Test A: Determination of Thrombin Inhibition with a Chromogenic, Robotic Assay. Type of assay: biochemical. The conditions noted are these: chromogenic substrate S-2366 0.30 mmol/L, α-thrombin 0.020 NIHU/mL, 40 minutes incubation at 37° C. The protocol:
Determination of Thrombin Inhibition with a Chromogenic, Robotic Assay
The thrombin inhibitor potency is measured with a chromogenic substrate method, in a Plato 3300 robotic microplate processor (Rosys AG, CH-8634 Hombrechtikon, Switzerland), using 96-well, half volume microtitre plates (Costar, Cambridge, Mass., USA; Cat No 3690). Stock solutions of test substance in DMSO (72 μL), 0.1-1 mmol/L, are diluted serially 1:3 (24+48 μL) with DMSO to obtain ten different concentrations, which are analysed as samples in the assay. 2 μL of test sample is diluted with 124 μL assay buffer, 12 μL of chromogenic substrate solution (S-2366, Chromogenix, Mölndal, Sweden) in assay buffer and finally 12 μL of α-thrombin solution (Human α-thrombin, Sigma Chemical Co. or Hematologic Technologies) in assay buffer, are added, and the samples mixed. The final assay concentrations are: test substance 0.00068-133 μmol/L, S-2366 0.30 mmol/L, α-thrombin 0.020 NIHU/mL. The linear absorbance increment during 40 minutes incubation at 37° C. is used for calculation of percentage inhibition for the test samples, as compared to blanks without inhibitor.
Broadly, the IC50 is the concentration at which inhibition is half-maximal. High values mean weaker potency in that assay, low ones greater potency in that assay. As for `O=C(N1CC2CC1(C(=O)NCc1cc(Cl)ccc1-n1cnnn1)C2)C1(O)CCOc2ccccc21` (racemic) [Example 64, (rac)-2-(4-Hydroxy-1-benzopyran-4-carbonyl)-2-aza-bicyclo[2.1.1]hexane-1-carboxylic acid 5-chloro-2-tetrazol-1-yl-benzylamide], the 50% inhibitory concentration (IC50) was 40 nM. Compound `CC(C)(C)C[C@@H](N)C(=O)N1C[C@@H]2C[C@@H]2[C@H]1C(=O)NCc1cc(Cl)ccc1-n1cnnn1` [Example 18, (1S,2S,5R)-3-((R)-2-Amino-4,4-dimethyl-pentanoyl)-3-aza-bicyclo[3.1.0]hexane-2-carboxylic acid 5-chloro-2-tetrazol-1-yl-benzylamide hydrochloride] came in with an IC50 of 1 nM. Next, `CC(C)(C)C[C@@H](N)C(=O)N1[C@@H]2C[C@@H]2C[C@H]1C(=O)NCc1cc(Cl)ccc1-n1cnnn1` [Example 19, (1R,3S,5R)-2-((R)-2-Amino-4,4-dimethyl-pentanoyl)-2-aza-bicyclo[3.1.0]hexane-3-carboxylic acid 5-chloro-2-tetrazol-1-yl-benzylamide hydrochloride]: 4 nM; `CC(C)(C)C[C@@H](N)C(=O)N1[C@H](C(=O)NCc2cc(Cl)ccc2-n2cnnn2)C[C@@H]2C[C@@H]21` [Example 20, (1S,3S,5S)-2-((R)-2-Amino-4,4-dimethyl-pentanoyl)-2-aza-bicyclo[3.1.0]hexane-3-carboxylic acid 5-chloro-2-tetrazol-1-yl-benzylamide hydrochloride]: 2 nM; `O=C([C@H](O)C1CCCCC1)N1CC[C@@H]2C[C@@]21C(=O)NCc1cc(Cl)ccc1-n1cnnn1` [Example 27, (1S,5R)-2-((R)-2-Cyclohexyl-2-hydroxy-acetyl)-2-aza-bicyclo[3.1.0]hexane-1-carboxylic acid-5-chloro-2-tetrazol-1-yl-benzylamide]: 7 nM. In turn, `CC(C)(C)C[C@@H](O)C(=O)N1CC2CC1(C(=O)NCc1cc(Cl)ccc1-n1cnnn1)C2` [Example 28, 2-((R)-2-Hydroxy-4,4-dimethyl-pentanoyl)-2-aza-bicyclo[2.1.1]hexane-1-carboxylic acid 5-chloro-2-tetrazol-1-yl-benzylamide] displayed an IC50 of 6 nM. Compound `O=C([C@H](O)Cc1ccccc1)N1CC2CC1(C(=O)NCc1cc(Cl)ccc1-n1cnnn1)C2` [Example 29, 2-((R)-2-Hydroxy-3-phenyl-propionyl)-2-aza-bicyclo[2.1.1]hexane-1-carboxylic acid 5-chloro-2-tetrazol-1-yl-benzylamide] returned a half-inhibitory concentration (IC50) of 290 nM. Turning to `O=C([C@H](O)c1ccccc1)N1CC2CC1(C(=O)NCc1cc(Cl)ccc1-n1cnnn1)C2` [Example 30, 2-((R)-2-Hydroxy-2-phenyl-acetyl)-2-aza-bicyclo[2.1.1]hexane-1-carboxylic acid 5-chloro-2-tetrazol-1-yl-benzylamide], inhibition was half-maximal at 47 nM (IC50). `CC(C)(C1CC1)C(O)C(=O)N1[C@H](C(=O)NCc2cc(Cl)ccc2-n2cnnn2)C[C@@H]2C[C@@H]21` (stereo partly drawn) [Example 33, (1S,3S,5S)-2-(3-Cyclopropyl-2-hydroxy-3-methyl-butyryl)-2-aza-bicyclo[3.1.0]hexane-3-carboxylic acid 5-chloro-2-tetrazol-1-yl-benzylamide] had an IC50 of 10 nM. Under `O=C(NCc1cc(Cl)ccc1-n1cnnn1)[C@@H]1[C@H]2C[C@H]2CN1C(=O)[C@H](O)c1cc(Cl)cc(OC(F)F)c1` [Example 36, (1S,2S,5R)-3-[2-((R)-3-Chloro-5-difluoromethoxy-phenyl)-2-hydroxy-acetyl]-3-aza-bicyclo[3.1.0]hexane-2-carboxylic acid 5-chloro-2-tetrazol-1-yl-benzylamide] stands 9 nM; under `O=C(NCc1cc(Cl)ccc1-n1cnnn1)[C@@H]1C[C@@H]2C[C@@H]2N1C(=O)[C@H](O)c1cc(Cl)cc(OC(F)F)c1` [Example 37, (1S,3S,5S)-2-[(R)-2-(3-Chloro-5-difluoromethoxy-phenyl)-2-hydroxy-acetyl]-2-aza-bicyclo[3.1.0]hexane-3-carboxylic acid 5-chloro-2-tetrazol-1-yl-benzylamide], 4 nM; under `N[C@@H](C(=O)N1[C@H](C(=O)NCc2cc(Cl)ccc2-n2cnnn2)C[C@@H]2C[C@@H]21)c1ccccc1` [Example 43, (1S,3S,5S)-2-((R)-2-Amino-2-phenyl-acetyl)-2-aza-bicyclo[3.1.0]hexane-3-carboxylic acid 5-chloro-2-tetrazol-1-yl-benzylamide], 5 nM.

`N[C@@H](C(=O)N1[C@H](C(=O)NCc2cc(Cl)ccc2-n2cnnn2)C[C@@H]2C[C@@H]21)c1ccc(O)cc1` [Example 48, (1S,3S,5S)-2-[(R)-2-Amino-2-(4-hydroxy-phenyl)-acetyl]-2-aza-bicyclo[3.1.0]hexane-3-carboxylic acid 5-chloro-2-tetrazol-1-yl-benzylamide hydrochloride] yielded a half-maximal inhibitory concentration (IC50) of 22 nM. Regarding `N[C@H](CO)C(=O)N1[C@H](C(=O)NCc2cc(Cl)ccc2-n2cnnn2)C[C@@H]2C[C@@H]21` [Example 49, (1S,3S,5S)-2-((R)-2-Amino-3-hydroxy-propionyl)-2-aza-bicyclo[3.1.0]hexane-3-carboxylic acid 5-chloro-2-tetrazol-1-yl-benzylamide hydrochloride], inhibition was half-maximal at 450 nM (IC50).

For the compound `N[C@H](CO)C(=O)N1[C@@H]2C[C@@H]2C[C@H]1C(=O)NCc1cc(Cl)ccc1-n1cnnn1` [Example 50, (1R,3S,5R)-2-((R)-2-Amino-3-hydroxy-propionyl)-2-aza-bicyclo[3.1.0]hexane-3-carboxylic acid 5-chloro-2-tetrazol-1-yl-benzylamide hydrochloride], the concentration for half-maximal inhibition (IC50) was 2500 nM.

As for `O=C(NCc1cc(Cl)ccc1-n1cnnn1)[C@@H]1C[C@@H]2C[C@@H]2N1C(=O)C(O)Cn1cncn1` (some centres unmarked) [Example 51], the 50% inhibitory concentration (IC50) is 420 nM. Consider `O=C(NCc1cc(Cl)ccc1-n1cnnn1)[C@@H]1[C@H]2C[C@H]2CN1C(=O)C(O)Cn1cncn1` (stereo partly drawn) [Example 52, (1S,2S,5R)-3-(2-Hydroxy-3-1,2,4-triazol-1-yl-propionyl)-3-aza-bicyclo[3.1.0]hexane-2-carboxylic acid 5-chloro-2-tetrazol-1-yl-benzylamide], for which the half-inhibitory concentration (IC50) was found to be 570 nM. `CC(C)(C)OC[C@@H](N)C(=O)N1[C@H](C(=O)NCc2cc(Cl)ccc2-n2cnnn2)C[C@@H]2C[C@@H]21` [Example 53, (1S,3S,5S)-2-((R)-2-Amino-3-tert-butoxy-propionyl)-2-aza-bicyclo[3.1.0]hexane-3-carboxylic acid 5-chloro-2-tetrazol-1-yl-benzylamide acetate] gave a 50% inhibitory concentration (IC50) of 5 nM. With `CC(C)(C)OC[C@@H](N)C(=O)N1C[C@@H]2C[C@@H]2[C@H]1C(=O)NCc1cc(Cl)ccc1-n1cnnn1` [Example 54, (1S,2S,5R)-3-((R)-2-Amino-3-tert-butoxy-propionyl)-3-aza-bicyclo[3.1.0]hexane-2-carboxylic acid 5-chloro-2-tetrazol-1-yl-benzylamide acetate], the midpoint of inhibition, the IC50, lay at 6 nM. Regarding `O=C(NCc1cc(Cl)ccc1-n1cnnn1)[C@@H]1[C@H]2C[C@H]2CN1C(=O)[C@H](O)c1cccc(Cl)c1` [Example 57, (1S,2S,5R)-3-[(R)-2-(3-Chloro-phenyl)-2-hydroxy-acetyl]-3-aza-bicyclo[3.1.0]hexane-2-carboxylic acid 5-chloro-2-tetrazol-1-yl-benzylamide], it took 3 nM to reach half-maximal inhibition (IC50).
